# Results taken from patent publication US20100137449A1, “SUBSTITUTED 1,3-CYCLOPENTADIONE MULTI-TARGET PROTEIN KINASE MODULATORS OF CANCER, ANGIOGENESIS AND THE INFLAMMATORY PATHWAYS ASSOCIATED THEREWITH” (METAPROTEOMICS, LLC, priority 2007, published 2010).
# Columns and labels:
# Assay in all cases: KinaseProfiler Assay
# [1] = target: T1, Flt3(h) (Homo sapiens, UniProt P36888)
# T1 sequence (P36888 27-993): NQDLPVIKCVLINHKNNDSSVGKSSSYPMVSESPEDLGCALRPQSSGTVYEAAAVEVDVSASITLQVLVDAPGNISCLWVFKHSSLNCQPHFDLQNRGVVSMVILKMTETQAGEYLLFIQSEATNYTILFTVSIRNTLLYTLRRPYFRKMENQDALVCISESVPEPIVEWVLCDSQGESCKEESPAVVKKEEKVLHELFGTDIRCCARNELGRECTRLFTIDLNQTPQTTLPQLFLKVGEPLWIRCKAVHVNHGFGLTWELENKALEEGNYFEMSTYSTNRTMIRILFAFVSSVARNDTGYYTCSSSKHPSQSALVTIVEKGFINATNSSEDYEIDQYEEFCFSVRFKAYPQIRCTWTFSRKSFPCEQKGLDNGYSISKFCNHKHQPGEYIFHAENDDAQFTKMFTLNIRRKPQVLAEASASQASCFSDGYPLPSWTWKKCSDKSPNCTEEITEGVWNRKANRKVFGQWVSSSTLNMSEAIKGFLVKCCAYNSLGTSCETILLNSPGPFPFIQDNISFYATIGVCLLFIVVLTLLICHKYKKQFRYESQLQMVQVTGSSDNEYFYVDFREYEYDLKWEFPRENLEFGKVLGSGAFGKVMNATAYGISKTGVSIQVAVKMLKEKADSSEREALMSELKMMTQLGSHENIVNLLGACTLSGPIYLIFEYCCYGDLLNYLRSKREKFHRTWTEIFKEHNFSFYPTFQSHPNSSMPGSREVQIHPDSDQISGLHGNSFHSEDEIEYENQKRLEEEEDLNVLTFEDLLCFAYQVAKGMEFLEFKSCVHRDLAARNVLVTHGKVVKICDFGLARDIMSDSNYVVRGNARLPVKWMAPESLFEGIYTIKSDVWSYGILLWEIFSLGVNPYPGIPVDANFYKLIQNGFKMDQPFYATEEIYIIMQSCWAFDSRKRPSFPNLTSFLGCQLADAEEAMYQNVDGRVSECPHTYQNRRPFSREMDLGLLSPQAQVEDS
# [2] = target: PKCβII(h) (Homo sapiens, UniProt P05771)
# PKCβII(h), sequence (P05771 1-673 isoform P05771-2): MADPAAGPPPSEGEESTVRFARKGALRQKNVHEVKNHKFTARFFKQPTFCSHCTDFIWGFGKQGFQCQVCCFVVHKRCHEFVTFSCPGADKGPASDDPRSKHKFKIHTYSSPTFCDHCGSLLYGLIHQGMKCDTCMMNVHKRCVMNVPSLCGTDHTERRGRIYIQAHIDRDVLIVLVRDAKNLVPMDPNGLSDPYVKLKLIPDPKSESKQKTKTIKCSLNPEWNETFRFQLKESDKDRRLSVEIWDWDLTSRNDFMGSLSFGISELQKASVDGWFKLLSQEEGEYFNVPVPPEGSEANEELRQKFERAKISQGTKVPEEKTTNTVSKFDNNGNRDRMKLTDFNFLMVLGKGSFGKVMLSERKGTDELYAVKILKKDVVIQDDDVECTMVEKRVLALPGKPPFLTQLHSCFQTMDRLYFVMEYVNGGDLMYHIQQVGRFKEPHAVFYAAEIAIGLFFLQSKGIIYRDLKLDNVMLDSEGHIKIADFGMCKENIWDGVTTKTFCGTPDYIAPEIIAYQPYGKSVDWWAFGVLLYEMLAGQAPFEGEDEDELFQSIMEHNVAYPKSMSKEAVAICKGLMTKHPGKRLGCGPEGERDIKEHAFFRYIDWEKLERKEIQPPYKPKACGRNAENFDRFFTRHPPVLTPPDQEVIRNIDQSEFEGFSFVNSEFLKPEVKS
# [3] = target: ROCK-I(h) (Homo sapiens, UniProt Q13464)
# ROCK-I(h), sequence (Q13464 whole entry): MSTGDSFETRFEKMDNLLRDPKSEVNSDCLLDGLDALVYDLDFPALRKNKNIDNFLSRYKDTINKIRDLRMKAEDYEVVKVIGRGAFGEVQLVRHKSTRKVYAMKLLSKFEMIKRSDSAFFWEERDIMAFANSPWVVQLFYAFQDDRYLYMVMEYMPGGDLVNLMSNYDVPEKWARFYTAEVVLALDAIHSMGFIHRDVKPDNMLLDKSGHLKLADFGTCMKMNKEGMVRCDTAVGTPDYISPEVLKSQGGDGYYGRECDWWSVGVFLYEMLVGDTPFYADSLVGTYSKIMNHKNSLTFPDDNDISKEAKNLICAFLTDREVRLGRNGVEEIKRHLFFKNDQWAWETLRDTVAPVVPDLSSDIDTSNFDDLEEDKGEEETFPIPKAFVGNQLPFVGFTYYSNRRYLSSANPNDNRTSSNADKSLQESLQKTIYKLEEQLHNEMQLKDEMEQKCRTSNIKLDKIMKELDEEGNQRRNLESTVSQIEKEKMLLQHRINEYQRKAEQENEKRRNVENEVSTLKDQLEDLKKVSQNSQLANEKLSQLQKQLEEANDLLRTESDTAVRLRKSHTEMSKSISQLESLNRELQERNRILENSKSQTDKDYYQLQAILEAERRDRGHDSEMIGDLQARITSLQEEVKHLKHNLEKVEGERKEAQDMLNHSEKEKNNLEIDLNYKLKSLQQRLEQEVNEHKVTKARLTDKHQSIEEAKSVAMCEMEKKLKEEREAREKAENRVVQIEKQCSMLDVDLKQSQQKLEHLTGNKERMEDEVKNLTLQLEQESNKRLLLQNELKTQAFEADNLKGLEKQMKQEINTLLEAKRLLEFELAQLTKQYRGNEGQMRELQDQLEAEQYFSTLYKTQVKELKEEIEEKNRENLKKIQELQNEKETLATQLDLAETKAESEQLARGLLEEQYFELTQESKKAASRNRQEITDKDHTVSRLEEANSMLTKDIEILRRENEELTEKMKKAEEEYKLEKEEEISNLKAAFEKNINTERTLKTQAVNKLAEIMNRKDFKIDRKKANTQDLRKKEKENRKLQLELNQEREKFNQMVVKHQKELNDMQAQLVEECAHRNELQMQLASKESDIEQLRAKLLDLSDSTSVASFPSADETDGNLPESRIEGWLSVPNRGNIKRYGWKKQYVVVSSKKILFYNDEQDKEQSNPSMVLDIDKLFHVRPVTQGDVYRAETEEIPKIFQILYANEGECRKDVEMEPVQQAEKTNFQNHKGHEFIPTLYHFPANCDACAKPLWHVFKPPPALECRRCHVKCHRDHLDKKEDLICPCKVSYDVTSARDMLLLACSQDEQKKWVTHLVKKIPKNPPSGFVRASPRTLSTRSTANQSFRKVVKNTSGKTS
# [4] = target: SRPK1(h) (Homo sapiens, UniProt Q96SB4)
# SRPK1(h), sequence (Q96SB4 whole entry): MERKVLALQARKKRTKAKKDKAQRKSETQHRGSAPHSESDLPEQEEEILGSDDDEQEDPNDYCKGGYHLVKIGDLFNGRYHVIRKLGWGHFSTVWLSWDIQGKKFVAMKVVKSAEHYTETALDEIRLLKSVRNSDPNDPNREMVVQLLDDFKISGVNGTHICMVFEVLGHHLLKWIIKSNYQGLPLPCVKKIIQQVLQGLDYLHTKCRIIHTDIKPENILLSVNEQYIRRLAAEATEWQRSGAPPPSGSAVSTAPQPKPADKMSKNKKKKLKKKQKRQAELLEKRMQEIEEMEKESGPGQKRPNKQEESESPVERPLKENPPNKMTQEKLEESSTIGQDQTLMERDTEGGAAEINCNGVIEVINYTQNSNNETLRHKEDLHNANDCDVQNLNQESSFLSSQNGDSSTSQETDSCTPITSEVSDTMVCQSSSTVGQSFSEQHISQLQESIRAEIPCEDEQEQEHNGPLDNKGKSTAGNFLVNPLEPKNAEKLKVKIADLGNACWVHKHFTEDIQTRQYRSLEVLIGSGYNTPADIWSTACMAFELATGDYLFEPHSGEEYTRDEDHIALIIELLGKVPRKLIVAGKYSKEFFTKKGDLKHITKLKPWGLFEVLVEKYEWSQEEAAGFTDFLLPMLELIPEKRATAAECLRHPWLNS
# [5] = target: T2, Txk(h) (Homo sapiens, UniProt P42681)
# T2 sequence (P42681 1-527): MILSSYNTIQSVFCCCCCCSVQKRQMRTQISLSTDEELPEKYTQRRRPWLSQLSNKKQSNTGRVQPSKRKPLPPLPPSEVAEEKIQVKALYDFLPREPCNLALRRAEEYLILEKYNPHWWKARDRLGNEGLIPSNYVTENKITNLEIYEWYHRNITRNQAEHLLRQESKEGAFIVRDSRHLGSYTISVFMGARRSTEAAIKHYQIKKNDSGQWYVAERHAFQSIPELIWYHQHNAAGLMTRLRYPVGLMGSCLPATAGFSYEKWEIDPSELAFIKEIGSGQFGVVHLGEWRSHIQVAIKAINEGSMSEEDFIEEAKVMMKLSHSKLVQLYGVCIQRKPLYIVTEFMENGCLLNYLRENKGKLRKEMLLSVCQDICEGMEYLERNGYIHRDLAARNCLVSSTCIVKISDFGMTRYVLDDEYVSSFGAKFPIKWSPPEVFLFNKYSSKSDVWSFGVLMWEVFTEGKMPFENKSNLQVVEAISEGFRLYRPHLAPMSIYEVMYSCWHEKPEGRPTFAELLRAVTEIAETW
# [6] = target: Abl(Y253F)(h) (Homo sapiens, UniProt P00519, Y253F)
# [7] = target: CDK3/cyclinE(h) (Homo sapiens, UniProt Q00526)
# CDK3/cyclinE(h), sequence (Q00526 whole entry): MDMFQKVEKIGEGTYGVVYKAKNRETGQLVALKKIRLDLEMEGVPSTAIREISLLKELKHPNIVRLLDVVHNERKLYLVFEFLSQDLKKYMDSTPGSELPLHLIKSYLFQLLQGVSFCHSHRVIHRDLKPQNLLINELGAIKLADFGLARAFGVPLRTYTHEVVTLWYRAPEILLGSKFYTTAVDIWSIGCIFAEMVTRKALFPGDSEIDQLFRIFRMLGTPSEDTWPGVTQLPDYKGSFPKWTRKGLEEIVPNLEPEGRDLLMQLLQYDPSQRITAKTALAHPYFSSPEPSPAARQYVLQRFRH
# CDK3/cyclinE(h), sequence (P24864 whole entry partner): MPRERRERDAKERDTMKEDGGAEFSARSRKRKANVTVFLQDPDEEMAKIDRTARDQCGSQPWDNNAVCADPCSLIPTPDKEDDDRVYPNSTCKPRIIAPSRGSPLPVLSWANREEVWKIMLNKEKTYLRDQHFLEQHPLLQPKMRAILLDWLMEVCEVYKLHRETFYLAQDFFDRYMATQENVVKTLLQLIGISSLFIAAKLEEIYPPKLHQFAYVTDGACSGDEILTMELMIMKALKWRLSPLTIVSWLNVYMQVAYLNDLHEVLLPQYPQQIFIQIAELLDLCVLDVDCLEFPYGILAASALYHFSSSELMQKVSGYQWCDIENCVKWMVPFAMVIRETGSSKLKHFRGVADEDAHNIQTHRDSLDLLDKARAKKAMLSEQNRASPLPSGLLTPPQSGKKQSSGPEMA
# [8] = target: Lyn(h) (Homo sapiens, UniProt P07948)
# Lyn(h), sequence (P07948 whole entry): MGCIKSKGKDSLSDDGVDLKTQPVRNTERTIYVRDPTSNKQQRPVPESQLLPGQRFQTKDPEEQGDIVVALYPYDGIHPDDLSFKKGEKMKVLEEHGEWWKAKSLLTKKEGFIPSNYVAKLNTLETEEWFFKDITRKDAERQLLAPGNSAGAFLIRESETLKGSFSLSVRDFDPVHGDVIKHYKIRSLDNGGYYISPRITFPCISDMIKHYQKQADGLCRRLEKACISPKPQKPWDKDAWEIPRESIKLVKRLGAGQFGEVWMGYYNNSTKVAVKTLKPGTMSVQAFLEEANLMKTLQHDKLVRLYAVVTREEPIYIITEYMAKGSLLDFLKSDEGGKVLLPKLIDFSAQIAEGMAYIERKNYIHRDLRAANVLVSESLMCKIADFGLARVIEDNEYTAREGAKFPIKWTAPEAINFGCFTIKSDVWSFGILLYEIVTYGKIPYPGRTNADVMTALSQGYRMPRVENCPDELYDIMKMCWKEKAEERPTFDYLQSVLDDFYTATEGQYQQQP
compound,measurement,setting,value
"CC(C)CCC(=O)[C@]1(O)C(O)=C(C(=O)C(C)C)C(=O)[C@H]1CCC(C)C [TH2, tetrahydroiso-cohumulone]",kinase inhibition,[1]; 1 μg/ml,107% of control
same,kinase inhibition,[1]; 5 μg/ml,99% of control
same,kinase inhibition,[1]; 25 μg/ml,109% of control
same,kinase inhibition,[1]; 50 μg/ml,95% of control
same,kinase inhibition,[1]; 100 μg/ml,84% of control
same,kinase inhibition,[2]; 1 μg/ml,107% of control
same,kinase inhibition,[2]; 5 μg/ml,105% of control
same,kinase inhibition,[2]; 25 μg/ml,99% of control
same,kinase inhibition,[2]; 50 μg/ml,103% of control
same,kinase inhibition,[2]; 100 μg/ml,98% of control
same,kinase inhibition,[3]; 1 μg/ml,110% of control
same,kinase inhibition,[3]; 5 μg/ml,111% of control
same,kinase inhibition,[3]; 25 μg/ml,110% of control
same,kinase inhibition,[3]; 50 μg/ml,100% of control
same,kinase inhibition,[3]; 100 μg/ml,88% of control
same,kinase inhibition,[4]; 1 μg/ml,47% of control
same,kinase inhibition,[4]; 5 μg/ml,89% of control
same,kinase inhibition,[4]; 25 μg/ml,61% of control
same,kinase inhibition,[4]; 50 μg/ml,53% of control
same,kinase inhibition,[4]; 100 μg/ml,45% of control
same,kinase inhibition,[5]; 1 μg/ml,114% of control
same,kinase inhibition,[5]; 5 μg/ml,121% of control
same,kinase inhibition,[5]; 25 μg/ml,121% of control
same,kinase inhibition,[5]; 50 μg/ml,110% of control
same,kinase inhibition,[5]; 100 μg/ml,107% of control
same,kinase inhibition,[6]; 1 μg/ml,117% of control
same,kinase inhibition,[6]; 5 μg/ml,100% of control
same,kinase inhibition,[6]; 25 μg/ml,83% of control
same,kinase inhibition,[6]; 50 μg/ml,65% of control
same,kinase inhibition,[6]; 100 μg/ml,58% of control
same,kinase inhibition,[7]; 1 μg/ml,102% of control
same,kinase inhibition,[7]; 5 μg/ml,104% of control
same,kinase inhibition,[7]; 25 μg/ml,120% of control
same,kinase inhibition,[7]; 50 μg/ml,103% of control
same,kinase inhibition,[7]; 100 μg/ml,84% of control
same,kinase inhibition,[8]; 1 μg/ml,145% of control
same,kinase inhibition,[8]; 5 μg/ml,146% of control
same,kinase inhibition,[8]; 25 μg/ml,139% of control
same,kinase inhibition,[8]; 50 μg/ml,91% of control
same,kinase inhibition,[8]; 100 μg/ml,68% of control
